Data: ChEMBL document CHEMBL1127134, “Synthesis and antibacterial activity of (1R,5R,6R)-2-tert-butyl-6-(1-hydroxyethyl)oxapenem-3-carboxylic acid” (1993)
In brackets after ≈: the same amount, converted by molar mass.

Legend:
Format in all cases: functional
[1] = system: Staphylococcus aureus; assay: Minimum inhibitory concentration required for the antibacterial activity against Staphylococcus aureus 13N Munchen
[2] = system: Staphylococcus aureus; assay: Minimum inhibitory concentration required for the antibacterial activity against Staphylococcus aureus 1756; details: Staphylococcus aureus; read-out: MIC
[3] = system: Staphylococcus aureus; assay: Minimum inhibitory concentration required for the antibacterial activity against Staphylococcus aureus 21b Belgium
[4] = system: Staphylococcus aureus; assay: Minimum inhibitory concentration required for the antibacterial activity against Staphylococcus aureus 25085
[5] = system: Staphylococcus aureus; assay: Minimum inhibitory concentration required for the antibacterial activity against Staphylococcus aureus 25463
[6] = system: Staphylococcus aureus; assay: Minimum inhibitory concentration required for the antibacterial activity against Staphylococcus aureus 25464
[7] = system: Staphylococcus aureus; assay: Minimum inhibitory concentration required for the antibacterial activity against Staphylococcus aureus 25470
[8] = system: Staphylococcus aureus; assay: Minimum inhibitory concentration required for the antibacterial activity against Staphylococcus aureus 25697
[9] = system: Staphylococcus aureus; assay: Minimum inhibitory concentration required for the antibacterial activity against Staphylococcus aureus 25768
[10] = system: Staphylococcus aureus; assay: Minimum inhibitory concentration required for the antibacterial activity against Staphylococcus aureus 41h Belgium
[11] = system: Staphylococcus aureus; assay: Minimum inhibitory concentration required for the antibacterial activity against Staphylococcus aureus 4978 Israel
[12] = system: Staphylococcus aureus; assay: Minimum inhibitory concentration required for the antibacterial activity against Staphylococcus aureus 77 Innsbruck
[13] = system: Staphylococcus aureus; assay: Minimum inhibitory concentration required for the antibacterial activity against Staphylococcus aureus 79B Innsbruck
[14] = system: Staphylococcus aureus; assay: Minimum inhibitory concentration required for the antibacterial activity against Staphylococcus aureus 86 Innsbruck
[15] = system: Staphylococcus aureus; assay: Minimum inhibitory concentration required for the antibacterial activity against Staphylococcus aureus 90 Innsbruck
[16] = system: Staphylococcus aureus; assay: Minimum inhibitory concentration required for the antibacterial activity against Staphylococcus aureus 17N Munchen
[17] = system: Staphylococcus aureus; assay: Minimum inhibitory concentration required for the antibacterial activity against Staphylococcus aureus 48N Munchen
[18] = system: Bacteroides fragilis; assay: Minimum inhibitory concentration required for the antibacterial activity against Bacillus fragilis 4891/91 Kr
[19] = system: Bacteroides fragilis; assay: Minimum inhibitory concentration required for the antibacterial activity against Bacillus fragilis DSM 2151
[20] = system: Bacteroides fragilis; assay: Minimum inhibitory concentration required for the antibacterial activity against Bacillus fragilis ES 25
[21] = system: Bacteroides fragilis; assay: Minimum inhibitory concentration required for the antibacterial activity against Bacillus fragilis GA I - 0558 Japan
[22] = system: Bacteroides fragilis; assay: Minimum inhibitory concentration required for the antibacterial activity against Bacillus fragilis Kr 1 TV
[23] = system: Bacteroides fragilis; assay: Minimum inhibitory concentration required for the antibacterial activity against Bacillus fragilis Kr II
[24] = system: Bacteroides fragilis; assay: Minimum inhibitory concentration required for the antibacterial activity against Bacillus fragilis L 1168 Italien
[25] = system: Prevotella melaninogenica; assay: Minimum inhibitory concentration required for the antibacterial activity against Bacillus melaninogenicus Heidelberg
[26] = system: Prevotella melaninogenica; assay: Minimum inhibitory concentration required for the antibacterial activity against Bacillus melaninogenicus Kr
[27] = system: Parabacteroides distasonis; assay: Minimum inhibitory concentration required for the antibacterial activity against Bacillus distasonis Heidelberg
[28] = system: Parabacteroides distasonis; assay: Minimum inhibitory concentration required for the antibacterial activity against Bacillus distasonis Kr
[29] = system: Bacteroides fragilis; assay: Minimum inhibitory concentration required for the antibacterial activity against Bacillus fragilis 010848
[30] = system: Bacteroides fragilis; assay: Minimum inhibitory concentration required for the antibacterial activity against Bacillus fragilis 06688
[31] = system: Bacteroides fragilis; assay: Minimum inhibitory concentration required for the antibacterial activity against Bacillus fragilis 1560 I/82
[32] = system: Bacteroides fragilis; assay: Minimum inhibitory concentration required for the antibacterial activity against Bacillus fragilis 2034/35 Kr 43
[33] = system: Bacteroides fragilis; assay: Minimum inhibitory concentration required for the antibacterial activity against Bacillus fragilis 4661 Kr
[34] = system: Bacteroides thetaiotaomicron; assay: Minimum inhibitory concentration required for the antibacterial activity against Bacillus thetaiotaomicron 235 Munchen
[35] = system: Bacteroides thetaiotaomicron; assay: Minimum inhibitory concentration required for the antibacterial activity against Bacillus thetaiotaomicron DSM 2079
[36] = system: Phocaeicola vulgatus; assay: Minimum inhibitory concentration required for the antibacterial activity against Bacillus valgatus Kr III
[37] = system: Clostridium perfringens; assay: Minimum inhibitory concentration required for the antibacterial activity against Clostridium perfringens 1024027
[38] = system: Clostridium perfringens; assay: Minimum inhibitory concentration required for the antibacterial activity against Clostridium perfringens 24071
[39] = system: Clostridium perfringens; assay: Minimum inhibitory concentration required for the antibacterial activity against Clostridium perfringens 24072
[40] = system: Clostridium perfringens; assay: Minimum inhibitory concentration required for the antibacterial activity against Clostridium perfringens DSM 756
[41] = system: Clostridium butyricum; assay: Minimum inhibitory concentration required for the antibacterial activity against Clostridium butyricum
[42] = system: Thomasclavelia ramosa; assay: Minimum inhibitory concentration required for the antibacterial activity against Clostridium ramosum DSM 1402
[43] = system: Clostridium sporogenes; assay: Minimum inhibitory concentration required for the antibacterial activity against Clostridium sporogenes
[44] = system: Fusobacterium nucleatum; assay: Minimum inhibitory concentration required for the antibacterial activity against Fusobacterium nucleatum DSM 20482
[45] = system: Peptostreptococcus anaerobius; assay: Minimum inhibitory concentration required for the antibacterial activity against Peptostrept. anaer. Kr I
[46] = system: Peptostreptococcus anaerobius; assay: Minimum inhibitory concentration required for the antibacterial activity against Peptostrept. anaer. Kr II
[47] = system: Peptostreptococcus anaerobius; assay: Minimum inhibitory concentration required for the antibacterial activity against Peptostrept. anaer. 222 I/82
[48] = system: Peptostreptococcus anaerobius; assay: Minimum inhibitory concentration required for the antibacterial activity against Peptostrept. anaer. DSM 20357
[49] = system: Peptoniphilus asaccharolyticus; assay: Minimum inhibitory concentration required for the antibacterial activity against Peptococcus asacchar. DSM 20463
[50] = system: Anaerococcus prevotii; assay: Minimum inhibitory concentration required for the antibacterial activity against Peptococcus prevotii DSM 20548
[51] = system: Fusobacterium necrophorum; assay: Minimum inhibitory concentration required for the antibacterial activity against Sphaerophorus necrophorus Kr
[52] = system: Clostridium septicum; assay: Minimum inhibitory concentration required for the antibacterial activity against Clostridium septicum

## O=C(O)c1cn(C2CC2)c2cc(N3CCNCC3)c(F)cc2c1=O [CIPROFLOXACIN]
[1]
  MIC: 1.56 µg/mL (≈ 4.71 µM)
[2]
  MIC: ≤ 0.78 µg/mL
[3]
  MIC: 50 µg/mL (≈ 151 µM)
[4]
  MIC: ≤ 0.78 µg/mL
[5]
  MIC: 1.56 µg/mL (≈ 4.71 µM)
[6]
  MIC: ≤ 0.78 µg/mL
[7]
  MIC: ≤ 0.78 µg/mL
[8]
  MIC: 12.5 µg/mL (≈ 37.7 µM)
[9]
  MIC: 100 µg/mL (≈ 302 µM)
[10]
  MIC: 100 µg/mL (≈ 302 µM)
[11]
  MIC: ≤ 0.78 µg/mL
[12]
  MIC: > 100 µg/mL
[13]
  MIC: 100 µg/mL (≈ 302 µM)
[14]
  MIC: 100 µg/mL (≈ 302 µM)
[15]
  MIC: 12.5 µg/mL (≈ 37.7 µM)
[16]
  MIC: 12.5 µg/mL (≈ 37.7 µM)
[17]
  MIC: 12.5 µg/mL (≈ 37.7 µM)

## CC1(C)S[C@@H]2[C@H](NC(=O)[C@H](NC(=O)N3CCN(S(C)(=O)=O)C3=O)c3ccccc3)C(=O)N2[C@H]1C(=O)O [MEZLOCILLIN]
[1]
  MIC: 50 µg/mL (≈ 92.7 µM)
[2]
  MIC: 50 µg/mL (≈ 92.7 µM)
[3]
  MIC: 50 µg/mL (≈ 92.7 µM)
[4]
  MIC: 50 µg/mL (≈ 92.7 µM)
[5]
  MIC: 12.5 µg/mL (≈ 23.2 µM)
[6]
  MIC: 100 µg/mL (≈ 185 µM)
[7]
  MIC: 25 µg/mL (≈ 46.3 µM)
[8]
  MIC: 25 µg/mL (≈ 46.3 µM)
[9]
  MIC: 25 µg/mL (≈ 46.3 µM)
[10]
  MIC: 3.12 µg/mL (≈ 5.78 µM)
[11]
  MIC: 3.12 µg/mL (≈ 5.78 µM)
[12]
  MIC: 100 µg/mL (≈ 185 µM)
[13]
  MIC: 50 µg/mL (≈ 92.7 µM)
[14]
  MIC: 50 µg/mL (≈ 92.7 µM)
[15]
  MIC: > 100 µg/mL
[16]
  MIC: 12.5 µg/mL (≈ 23.2 µM)
[17]
  MIC: 12.5 µg/mL (≈ 23.2 µM)

## CO/N=C(\C(=O)N[C@@H]1C(=O)N2C(C(=O)O)=C(COC(C)=O)CS[C@H]12)c1csc(N)n1 [CEFOTAXIME]
[18]
  MIC: 4 µg/mL (≈ 8.78 µM)
[19]
  MIC: 4 µg/mL (≈ 8.78 µM)
[20]
  MIC: 4 µg/mL (≈ 8.78 µM)
[21]
  MIC: 8 µg/mL (≈ 17.6 µM)
[22]
  MIC: 1 µg/mL (≈ 2.2 µM)
[23]
  MIC: 2 µg/mL (≈ 4.39 µM)
[24]
  MIC: 4 µg/mL (≈ 8.78 µM)
[25]
  MIC: 2 µg/mL (≈ 4.39 µM)
[26]
  MIC: 2 µg/mL (≈ 4.39 µM)
[27]
  MIC: 2 µg/mL (≈ 4.39 µM)
[28]
  MIC: 2 µg/mL (≈ 4.39 µM)
[29]
  MIC: 16 µg/mL (≈ 35.1 µM)
[30]
  MIC: 2 µg/mL (≈ 4.39 µM)
[31]
  MIC: 2 µg/mL (≈ 4.39 µM)
[32]
  MIC: > 128 µg/mL
[33]
  MIC: 4 µg/mL (≈ 8.78 µM)
[34]
  MIC: 128 µg/mL (≈ 281 µM)
[35]
  MIC: 128 µg/mL (≈ 281 µM)
[36]
  MIC: 2 µg/mL (≈ 4.39 µM)
[37]
  MIC: ≤ 0.25 µg/mL
[38]
  MIC: 2 µg/mL (≈ 4.39 µM)
[39]
  MIC: 0.5 µg/mL (≈ 1.1 µM)
[40]
  MIC: ≤ 0.25 µg/mL
[41]
  MIC: 1 µg/mL (≈ 2.2 µM)
[42]
  MIC: 2 µg/mL (≈ 4.39 µM)
[43]
  MIC: 0.5 µg/mL (≈ 1.1 µM)
[44]
  MIC: 0.5 µg/mL (≈ 1.1 µM)
[45]
  MIC: 32 µg/mL (≈ 70.3 µM)
[46]
  MIC: ≤ 0.25 µg/mL
[47]
  MIC: 0.5 µg/mL (≈ 1.1 µM)
[48]
  MIC: 16 µg/mL (≈ 35.1 µM)
[49]
  MIC: ≤ 0.25 µg/mL
[50]
  MIC: 8 µg/mL (≈ 17.6 µM)
[51]
  MIC: 1 µg/mL (≈ 2.2 µM)
[52]
  MIC: 128 µg/mL (≈ 281 µM)

## CC1(C)S[C@@H]2[C@H](NC(=O)[C@H](N)c3ccccc3)C(=O)N2[C@H]1C(=O)O [AMPICILLIN]
[1]
  MIC: 50 µg/mL (≈ 143 µM)
[2]
  MIC: 50 µg/mL (≈ 143 µM)
[3]
  MIC: > 100 µg/mL
[4]
  MIC: 50 µg/mL (≈ 143 µM)
[5]
  MIC: 50 µg/mL (≈ 143 µM)
[6]
  MIC: 50 µg/mL (≈ 143 µM)
[7]
  MIC: 50 µg/mL (≈ 143 µM)
[8]
  MIC: 25 µg/mL (≈ 71.5 µM)
[9]
  MIC: 50 µg/mL (≈ 143 µM)
[10]
  MIC: 50 µg/mL (≈ 143 µM)
[11]
  MIC: 1.56 µg/mL (≈ 4.46 µM)
[12]
  MIC: 50 µg/mL (≈ 143 µM)
[13]
  MIC: 50 µg/mL (≈ 143 µM)
[14]
  MIC: 50 µg/mL (≈ 143 µM)
[15]
  MIC: 50 µg/mL (≈ 143 µM)
[16]
  MIC: 25 µg/mL (≈ 71.5 µM)
[17]
  MIC: 50 µg/mL (≈ 143 µM)
